Species on record: Rattus norvegicus
Test: DrugMatrix - Regimen: Daily Repeat
Format: toxicity, organism-based, Sprague-Dawley
Design: regimen Daily Repeat, gender Male, age 6-8 weeks
Settings: in vivo, po, route oral GAVAGE, vehicle .5 % CMC; for BASOPHIL / EOSINOPHIL / ERYTHROCYTE COUNT / HEMATOCRIT / HEMOGLOBIN / LEUKOCYTE COUNT / LYMPHOCYTE / MEAN CORPUSCULAR HEMOGLOBIN / MEAN CORPUSCULAR HEMOGLOBIN CONCENTRATION / MEAN CORPUSCULAR VOLUME / MONOCYTE / NEUTROPHIL / PLATELET COUNT: tissue Blood; for ALANINE AMINOTRANSFERASE / ALBUMIN / ALKALINE PHOSPHATASE / ASPARTATE AMINOTRANSFERASE / BLOOD UREA NITROGEN / CHLORIDE / CHOLESTEROL / CREATINE PHOSPHOKINASE / CREATININE / GLUCOSE / PHOSPHORUS / POTASSIUM / SODIUM / TOTAL PROTEIN: tissue Plasma
[1] = 0 mg/kg, 72 h, dose level Control, time 3 day
[2] = 0 mg/kg, 120 h, dose level Control, time 5 day
[3] = 1 mg/kg, 72 h, dose level Low, time 3 day
[4] = 1 mg/kg, 120 h, dose level Low, time 5 day
[5] = 14 mg/kg, 72 h, dose level High, time 3 day
[6] = 14 mg/kg, 120 h, dose level High, time 5 day

## CN1C(C(=O)Nc2ccccn2)=C(O)c2ccccc2S1(=O)=O [PIROXICAM]
[1]
  BASOPHIL: 0%
  EOSINOPHIL: 0.33%
  ERYTHROCYTE COUNT: 6.03 x10E6/uL
  HEMATOCRIT: 38.8%
  HEMOGLOBIN: 14.26 G/DL
  LEUKOCYTE COUNT: 10.64 x10E3/uL
  LYMPHOCYTE: 83.33%
  MEAN CORPUSCULAR HEMOGLOBIN: 23.64 pg
  MEAN CORPUSCULAR HEMOGLOBIN CONCENTRATION: 36.74 G/DL
  MEAN CORPUSCULAR VOLUME: 64.32 fL
  MONOCYTE: 3.33%
  NEUTROPHIL: 13%
  PLATELET COUNT: 1264.4 x10E3/uL
  ALANINE AMINOTRANSFERASE: 38.83 u/L
  ALBUMIN: 3.55 G/DL
  ALKALINE PHOSPHATASE: 368.33 u/L
  ASPARTATE AMINOTRANSFERASE: 66.17 u/L
  BLOOD UREA NITROGEN: 15.67 mg/dL
  CHLORIDE: 104.33 MEQ/L
  CHOLESTEROL: 76.5 mg/dL
  CREATINE PHOSPHOKINASE: 166.83 u/L
  CREATININE: 0.52 mg/dL
  GLUCOSE: 173.17 mg/dL
  PHOSPHORUS: 11.68 mg/dL
  POTASSIUM: 6.43 MEQ/L
  SODIUM: 149.5 MEQ/L
  TOTAL PROTEIN: 5.93 G/DL
[2]
  BASOPHIL: 0%
  EOSINOPHIL: 0%
  ERYTHROCYTE COUNT: 5.88 x10E6/uL
  HEMATOCRIT: 37.87%
  HEMOGLOBIN: 14.48 G/DL
  LEUKOCYTE COUNT: 12.43 x10E3/uL
  LYMPHOCYTE: 84.17%
  MEAN CORPUSCULAR HEMOGLOBIN: 24.65 pg
  MEAN CORPUSCULAR HEMOGLOBIN CONCENTRATION: 38.25 G/DL
  MEAN CORPUSCULAR VOLUME: 64.47 fL
  MONOCYTE: 4.33%
  NEUTROPHIL: 11.5%
  PLATELET COUNT: 1182.33 x10E3/uL
  ALANINE AMINOTRANSFERASE: 38.67 u/L
  ALBUMIN: 3.55 G/DL
  ALKALINE PHOSPHATASE: 342.5 u/L
  ASPARTATE AMINOTRANSFERASE: 63.33 u/L
  BLOOD UREA NITROGEN: 15.5 mg/dL
  CHLORIDE: 104 MEQ/L
  CHOLESTEROL: 75.5 mg/dL
  CREATINE PHOSPHOKINASE: 142.5 u/L
  CREATININE: 0.62 mg/dL
  GLUCOSE: 165.17 mg/dL
  PHOSPHORUS: 10.87 mg/dL
  POTASSIUM: 6.85 MEQ/L
  SODIUM: 150.17 MEQ/L
  TOTAL PROTEIN: 5.93 G/DL
[3]
  BASOPHIL: 0%
  EOSINOPHIL: 0%
  ERYTHROCYTE COUNT: 6.55 x10E6/uL
  HEMATOCRIT: 42.8%
  HEMOGLOBIN: 15.95 G/DL
  LEUKOCYTE COUNT: 11.1 x10E3/uL
  LYMPHOCYTE: 85.5%
  MEAN CORPUSCULAR HEMOGLOBIN: 24.3 pg
  MEAN CORPUSCULAR HEMOGLOBIN CONCENTRATION: 37.3 G/DL
  MEAN CORPUSCULAR VOLUME: 65.25 fL
  MONOCYTE: 3.5%
  NEUTROPHIL: 11%
  PLATELET COUNT: 1530 x10E3/uL
  ALANINE AMINOTRANSFERASE: 31.5 u/L
  ALBUMIN: 3.75 G/DL
  ALKALINE PHOSPHATASE: 379 u/L
  ASPARTATE AMINOTRANSFERASE: 59 u/L
  BLOOD UREA NITROGEN: 16.5 mg/dL
  CHLORIDE: 102.5 MEQ/L
  CHOLESTEROL: 77.5 mg/dL
  CREATINE PHOSPHOKINASE: 142.5 u/L
  CREATININE: 0.4 mg/dL
  GLUCOSE: 174 mg/dL
  PHOSPHORUS: 13.7 mg/dL
  POTASSIUM: 6.85 MEQ/L
  SODIUM: 152 MEQ/L
  TOTAL PROTEIN: 6.2 G/DL
[4]
  BASOPHIL: 0%
  EOSINOPHIL: 0.33%
  ERYTHROCYTE COUNT: 6.32 x10E6/uL
  HEMATOCRIT: 40.2%
  HEMOGLOBIN: 15.2 G/DL
  LEUKOCYTE COUNT: 12.73 x10E3/uL
  LYMPHOCYTE: 86.33%
  MEAN CORPUSCULAR HEMOGLOBIN: 24.07 pg
  MEAN CORPUSCULAR HEMOGLOBIN CONCENTRATION: 37.83 G/DL
  MEAN CORPUSCULAR VOLUME: 63.7 fL
  MONOCYTE: 2.33%
  NEUTROPHIL: 11%
  PLATELET COUNT: 1319.67 x10E3/uL
  ALANINE AMINOTRANSFERASE: 36.67 u/L
  ALBUMIN: 3.43 G/DL
  ALKALINE PHOSPHATASE: 437.33 u/L
  ASPARTATE AMINOTRANSFERASE: 64 u/L
  BLOOD UREA NITROGEN: 13.67 mg/dL
  CHLORIDE: 103 MEQ/L
  CHOLESTEROL: 65 mg/dL
  CREATINE PHOSPHOKINASE: 156.67 u/L
  CREATININE: 0.53 mg/dL
  GLUCOSE: 162.67 mg/dL
  PHOSPHORUS: 11.97 mg/dL
  POTASSIUM: 7.07 MEQ/L
  SODIUM: 148.33 MEQ/L
  TOTAL PROTEIN: 5.63 G/DL
[5]
  BASOPHIL: 0%
  EOSINOPHIL: 0.67%
  ERYTHROCYTE COUNT: 6.72 x10E6/uL
  HEMATOCRIT: 42.6%
  HEMOGLOBIN: 15.63 G/DL
  LEUKOCYTE COUNT: 11.5 x10E3/uL
  LYMPHOCYTE: 77.67%
  MEAN CORPUSCULAR HEMOGLOBIN: 23.3 pg
  MEAN CORPUSCULAR HEMOGLOBIN CONCENTRATION: 36.73 G/DL
  MEAN CORPUSCULAR VOLUME: 63.4 fL
  MONOCYTE: 1.67%
  NEUTROPHIL: 20%
  PLATELET COUNT: 1318.33 x10E3/uL
  ALANINE AMINOTRANSFERASE: 31.33 u/L
  ALBUMIN: 3.67 G/DL
  ALKALINE PHOSPHATASE: 301.33 u/L
  ASPARTATE AMINOTRANSFERASE: 56.33 u/L
  BLOOD UREA NITROGEN: 18.33 mg/dL
  CHLORIDE: 104.67 MEQ/L
  CHOLESTEROL: 84.67 mg/dL
  CREATINE PHOSPHOKINASE: 181.33 u/L
  CREATININE: 0.47 mg/dL
  GLUCOSE: 193.67 mg/dL
  PHOSPHORUS: 14.03 mg/dL
  POTASSIUM: 6.9 MEQ/L
  SODIUM: 150.67 MEQ/L
  TOTAL PROTEIN: 6.03 G/DL
[6]
  BASOPHIL: 0%
  EOSINOPHIL: 0%
  ERYTHROCYTE COUNT: 6.6 x10E6/uL
  HEMATOCRIT: 41.4%
  HEMOGLOBIN: 15.03 G/DL
  LEUKOCYTE COUNT: 16.7 x10E3/uL
  LYMPHOCYTE: 84.33%
  MEAN CORPUSCULAR HEMOGLOBIN: 22.83 pg
  MEAN CORPUSCULAR HEMOGLOBIN CONCENTRATION: 36.4 G/DL
  MEAN CORPUSCULAR VOLUME: 62.8 fL
  MONOCYTE: 0.67%
  NEUTROPHIL: 15%
  PLATELET COUNT: 1151 x10E3/uL
  ALANINE AMINOTRANSFERASE: 37.33 u/L
  ALBUMIN: 3.4 G/DL
  ALKALINE PHOSPHATASE: 386 u/L
  ASPARTATE AMINOTRANSFERASE: 55.33 u/L
  BLOOD UREA NITROGEN: 15.33 mg/dL
  CHLORIDE: 101.67 MEQ/L
  CHOLESTEROL: 67 mg/dL
  CREATINE PHOSPHOKINASE: 159.67 u/L
  CREATININE: 0.5 mg/dL
  GLUCOSE: 174.67 mg/dL
  PHOSPHORUS: 14.17 mg/dL
  POTASSIUM: 7.1 MEQ/L
  SODIUM: 149 MEQ/L
  TOTAL PROTEIN: 5.7 G/DL

Reference: ChEMBL document CHEMBL3885881, “DrugMatrix”
